The target of assay [1] is T1, Comamonas testosteroni 3α-HSDH, wild type, N-terminal hexahistidine tag (Comamonas testosteroni, UniProt P80702).
T1 sequence (P80702 1-257): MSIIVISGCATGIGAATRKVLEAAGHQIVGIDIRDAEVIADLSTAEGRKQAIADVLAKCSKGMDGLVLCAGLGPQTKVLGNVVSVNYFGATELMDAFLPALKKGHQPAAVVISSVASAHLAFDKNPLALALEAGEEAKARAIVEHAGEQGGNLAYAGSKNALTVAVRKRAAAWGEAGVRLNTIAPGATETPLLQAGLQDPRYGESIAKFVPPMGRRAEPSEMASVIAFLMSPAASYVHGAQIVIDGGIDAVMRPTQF
The assay is described as follows: Michaelis-Menten kinetics of wild-type 3α-HSDH with N-terminal His tag. The format is biochemical. Conditions: Table 14, substrate DHCA, apparent values. From the text: The His-tag allows for very simple purification of the HSDH protein since this sequence is bound with high specificity by specific chromatographic material (NTA (Ni-nitrilotriacetate)-modified support material, loaded with divalent nickel ions, for example “His Pur Ni-NTA” (Nimagen B. V., Nijmegen, The Netherlands)). To this end, the cell-free crude extract is applied to a dropping column comprising this material, which dropping column has previously been equilibrated with the disruption buffer (3 to 5 column volumes). Weakly binding protein was removed by washing with 3 to 5 column volumes of wash buffer (20 mM imidazole, 50 mM sodium phosphate, 300 mM NaCl, pH 8). The His-tag-3α-HSDH protein was eluted with imidazole-comprising elution buffer (250 mM imidazole, 50 mM sodium phosphate, 300 mM NaCl, pH 8). The process was carried out at room temperature. The imidazole which was present was to be removed by buffer exchange.
The activity of the 3α-HSDH and of the mutants was determined using a photometric assay, where the decrease in absorbance was measured at 340 nm over a period of 30 seconds.
The targeted exchange of amino acid radicals was performed analogously to Example 2B.
Following cultivation and expression, the cells were harvested, and the specific activities of the cell-free crude extracts were determined at substrate concentrations of 10 mM DHCA. […]

The target of assay [2] is T2, Comamonas testosteroni 3α-HSDH mutant [T188A], N-terminal hexahistidine tag (Comamonas testosteroni, UniProt P80702, T188A).
T2 sequence (P80702 1-257 T188A): T1 sequence (P80702 1-257) with T188A
The assay is described as follows: Kinetics of 3α-HSDH [T188A], N-terminal His tag.

In assay [3] the target is T3, Comamonas testosteroni 3α-HSDH, wild type, C-terminal 3×His tag (Comamonas testosteroni, UniProt P80702).
T3 sequence (P80702 with tags, fused parts or gaps): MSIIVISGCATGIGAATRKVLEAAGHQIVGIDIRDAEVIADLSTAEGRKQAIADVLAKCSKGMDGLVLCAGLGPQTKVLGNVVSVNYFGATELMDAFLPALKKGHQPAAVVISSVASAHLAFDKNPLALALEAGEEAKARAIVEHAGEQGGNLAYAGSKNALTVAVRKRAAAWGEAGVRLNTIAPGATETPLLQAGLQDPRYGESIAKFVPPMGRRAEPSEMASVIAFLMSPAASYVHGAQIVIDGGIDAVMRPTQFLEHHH
The assay is described as follows: Michaelis-Menten kinetics of 3α-HSDH with 3×His tag. Conditions: His tag length 3; DHCA 10 μM-10 mM; NADH 0.2 mM; purified.
Text: (§1) The His-tag allows for very simple purification of the HSDH protein since this sequence is bound with high specificity by specific chromatographic material (NTA (Ni-nitrilotriacetate)-modified support material, loaded with divalent nickel ions, for example “His Pur Ni-NTA” (Nimagen B. V., Nijmegen, The Netherlands)). To this end, the cell-free crude extract is applied to a dropping column comprising this material, which dropping column has previously been equilibrated with the disruption buffer (3 to 5 column volumes). Weakly binding protein was removed by washing with 3 to 5 column volumes of wash buffer (20 mM imidazole, 50 mM sodium phosphate, 300 mM NaCl, pH 8). […] The process was carried out at room temperature. The imidazole which was present was to be removed by buffer exchange.
(§2) Following expression (25° C., 0.5 mM, IPTG, 20 hours), the protein was purified, and the expression and the purification were checked by means of an SDS gel. […] The NADH concentration was 0.2 mM. Purified protein was employed in the measurements.

In assay [4] the target is T4, Comamonas testosteroni 3α-HSDH, wild type, C-terminal 9×His tag (SEQ ID NO: 51) (Comamonas testosteroni, UniProt P80702).
T4 sequence (P80702 with tags, fused parts or gaps): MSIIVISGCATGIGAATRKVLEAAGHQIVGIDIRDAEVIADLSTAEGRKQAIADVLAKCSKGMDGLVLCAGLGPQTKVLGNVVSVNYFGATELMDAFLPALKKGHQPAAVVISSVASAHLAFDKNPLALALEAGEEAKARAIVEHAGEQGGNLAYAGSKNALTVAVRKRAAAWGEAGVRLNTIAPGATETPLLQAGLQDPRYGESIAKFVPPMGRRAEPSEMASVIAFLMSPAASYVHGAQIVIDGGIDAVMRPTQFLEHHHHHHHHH
The assay is described as follows: Michaelis-Menten kinetics of 3α-HSDH with 9×His tag.
Text: as §1, §2

For assay [5], the target named is T5, Comamonas testosteroni 3α-HSDH dual mutant [L68A/T188S], N-terminal hexahistidine tag (Comamonas testosteroni, UniProt P80702, L68A/T188S).
T5 sequence (P80702 1-257 L68A/T188S): T1 sequence (P80702 1-257) with L68A, T188S

For assay [6], the target named is T6, Comamonas testosteroni 3α-HSDH dual mutant [P185A/T188A], N-terminal hexahistidine tag (Comamonas testosteroni, UniProt P80702, P185A/T188A).
T6 sequence (P80702 1-257 P185A/T188A): T1 sequence (P80702 1-257) with P185A, T188A
The assay is described as follows: Kinetics of 3α-HSDH [P185A/T188A], N-terminal His tag.

The mark [7] stands for this setting: Table 14, substrate DHCA, tag N, apparent values.
Setting [8] is: His tag length 9, DHCA 10 μM-10 mM, NADH 0.2 mM, purified.

Structures are written as SMILES. Where a chain is given by its changes, count along the chain named.

One compound from US10487348B2, “3-alpha-hydroxysteroid dehydrogenase mutants and process for the preparation of ursodeoxycholic acid” (Pharmazell GmbH, priority 2014, dated 2019) can be followed below.

The term kcat denotes the maximal rate divided by the concentration of active sites.

For the compound `C[C@H](CCC(=O)O)[C@H]1CC[C@H]2[C@@H]3C(=O)C[C@@H]4CC(=O)CC[C@]4(C)[C@H]3CC(=O)[C@]12C` [DHCA, dehydrocholic acid], the turnover number (kcat) in assay [1] was found to be 47.1 s⁻¹; in assay [2] (setting [7]), 130.3 s⁻¹; in assay [3], 6.5 ± 2.1 s⁻¹; in assay [4] (setting [8]), 8.9 ± 0.5 s⁻¹; in assay [5] (setting [7]), 91.8 s⁻¹; in assay [6] (setting [7]), 17.6 s⁻¹. Further, the vmax in assay [1] is listed as 98.7 ± 4.7 U/mg; in assay [2] (setting [7]), 274.0 ± 11.6 U/mg; in assay [3], 14.3 ± 4.8 U/mg; in assay [4] (setting [8]), 19.2 ± 1.1 U/mg; in assay [5] (setting [7]), 193.2 ± 11.4 U/mg; in assay [6] (setting [7]) it was 36.9 ± 2.6 U/mg. In addition, in assay [2] (read-out: residual activity), the remaining activity at 20000 µM is roughly 20%. For the same compound, the “KM value better than the variant with 3 histidines” value in assay [4] (DHCA, 9 vs 3 histidines) worked out at 14 fold. The values for the remaining activity at 10000 µM in assay [5] (read-out: residual activity) and in assay [6] (read-out: residual activity) were roughly 20% and roughly 30%, respectively.
